Laboratory results: PubChem BioAssay (NCI)
Values joined by “and” are separate entries in the source; they are usually repeats but may differ in a detail not shown here. Equal values may be shown once.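 Step 1: Grow cells in 96-well plates. Step 2: Expose to compound for 48 hours at 5 concentrations. Step 3: Interpolate endpoints linearly; if unreached, use highest concentration. Abbreviation: GI50, concentration required for 50% inhibition of growth. At the TGI there is no net growth.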

Tests used:
Experiment in all cases: NCI-60 cell line screen, 48 h
U251 CNS = system: U251 CNS
SF-539 CNS = system: SF-539 CNS
MCF7 breast = system: MCF7 breast
SNB-19 CNS = system: SNB-19 CNS
KM12 colon = system: KM12 colon
MDA-MB-435 = system: MDA-MB-435
SN12C renal = system: SN12C renal
A498 renal = system: A498 renal
OVCAR-3 ovarian = system: OVCAR-3 ovarian
HOP-92 NSCLC = system: HOP-92 NSCLC

## Oc1ccc(-c2cn3cc(Cl)sc3n2)cc1
U251 CNS
  GI50: > 100 µM
  TGI: > 100 µM
SF-539 CNS
  GI50: > 100 µM
  TGI: > 100 µM
MCF7 breast
  GI50: 6.77 µM
  TGI: 26.9 µM
SNB-19 CNS
  GI50: 58.8 µM
  TGI: > 100 µM
KM12 colon
  GI50: 20.9 µM
  TGI: 74.1 µM
MDA-MB-435
  GI50: 32.3 µM
  TGI: > 100 µM
SN12C renal
  GI50: 0.248 µM
  TGI: 94.8 µM
A498 renal
  GI50: 57.5 µM
  TGI: > 100 µM
OVCAR-3 ovarian
  GI50: 22.5 µM
  TGI: 64.1 µM

## O=C1CC[C@H](c2ccc(O)c3c2C(=O)[C@@H]2O[C@@H]2C3=O)c2cccc(O)c21
U251 CNS
  GI50: 11.6 µM
  TGI: 25.2 µM
SF-539 CNS
  GI50: 2.42 µM
  TGI: 5.46 µM
MCF7 breast
  GI50: 1.17 µM
  TGI: 4.2 µM
SNB-19 CNS
  GI50: 10.6 µM
  TGI: 33.6 µM
KM12 colon
  GI50: 3.51 µM
  TGI: 12.9 µM
MDA-MB-435
  GI50: 1.92 µM
  TGI: 4.2 µM
A498 renal
  GI50: 15.5 µM
  TGI: 29 µM
HOP-92 NSCLC
  GI50: 2.38 µM
  TGI: 5.12 µM

## COc1cc(-n2cnc(-c3ccc(Cl)cc3)c2)cc(OC)c1OC
U251 CNS
  GI50: 22.2 µM
  TGI: 57.8 µM
SF-539 CNS
  GI50: 17.1 µM
  TGI: 34.4 µM
MCF7 breast
  GI50: 17.9 µM
  TGI: 34.7 µM
SNB-19 CNS
  GI50: > 100 µM
  TGI: > 100 µM
KM12 colon
  GI50: > 100 µM
  TGI: > 100 µM
MDA-MB-435
  GI50: 38.4 µM
  TGI: > 100 µM
SN12C renal
  GI50: > 100 µM
  TGI: > 100 µM
A498 renal
  GI50: 14.2 µM
  TGI: 31.6 µM
OVCAR-3 ovarian
  GI50: > 100 µM
  TGI: > 100 µM

## COC1=C2C[C@@H](C)C[C@@H](OC)[C@@H](O)[C@H](C)/C=C(\C)[C@@H](OC(N)=O)[C@H](OC)/C=C\C=C(/C)C(=O)NC(=CC1=O)C2=O
U251 CNS
  TGI: 6.51 µM and 19.4 µM and 4.2 µM
SF-539 CNS
  TGI: 9.47 µM and 12.2 µM and 2.68 µM
SNB-19 CNS
  TGI: 28 µM and 26.5 µM and 10.4 µM
MDA-MB-435
  TGI: 5.5 µM and 8.63 µM and 5.65 µM
A498 renal
  TGI: 17.8 µM and 2.37 µM

## COc1ccc(C(=O)CC(=O)C(=O)Nc2ccc(C)c(C)c2)cc1
U251 CNS
  TGI: > 100 µM
SF-539 CNS
  TGI: > 100 µM
SNB-19 CNS
  TGI: > 100 µM
KM12 colon
  TGI: > 100 µM
SN12C renal
  TGI: > 100 µM
A498 renal
  TGI: > 100 µM
HOP-92 NSCLC
  TGI: > 100 µM
OVCAR-3 ovarian
  TGI: > 100 µM

## CCCC(=O)Nc1ccc2c(c1)CN1C(=O)c3ccccc3C1=N2
U251 CNS
  TGI: > 100 µM
SF-539 CNS
  TGI: > 100 µM
MCF7 breast
  TGI: > 100 µM
SNB-19 CNS
  TGI: > 100 µM
KM12 colon
  TGI: > 100 µM
MDA-MB-435
  TGI: > 100 µM
SN12C renal
  TGI: > 100 µM
HOP-92 NSCLC
  TGI: > 100 µM
OVCAR-3 ovarian
  TGI: > 100 µM

## CCn1c(-c2nonc2N)nc2cncc(C(=O)NCCNC)c21
U251 CNS
  GI50: > 25 µM
  TGI: > 25 µM
SF-539 CNS
  GI50: 3.04 µM
  TGI: > 25 µM
MCF7 breast
  GI50: 1.92 µM
  TGI: > 25 µM
SNB-19 CNS
  GI50: > 25 µM
  TGI: > 25 µM
KM12 colon
  GI50: > 25 µM
  TGI: > 25 µM
MDA-MB-435
  GI50: 2.64 µM
  TGI: > 25 µM
SN12C renal
  GI50: > 25 µM
  TGI: > 25 µM
A498 renal
  GI50: 0.834 µM
  TGI: > 19.8 µM
OVCAR-3 ovarian
  GI50: > 23.9 µM
  TGI: > 25 µM

## COc1ccccc1C(N)c1ccccc1 (stereo not drawn)
U251 CNS
  TGI: > 100 µM
SF-539 CNS
  TGI: > 100 µM
SNB-19 CNS
  TGI: > 100 µM
KM12 colon
  TGI: > 100 µM
SN12C renal
  TGI: > 100 µM
A498 renal
  TGI: > 100 µM
HOP-92 NSCLC
  TGI: > 100 µM
OVCAR-3 ovarian
  TGI: > 100 µM

## C=CC[C@@H]1/C=C(\C)C[C@H](C)C[C@H](OC)[C@H]2O[C@@](O)(C(=O)C(=O)N3CCCC[C@H]3C(=O)O[C@H](/C(C)=C/C3CC[C@@H](O)[C@H](OC)C3)[C@H](C)[C@@H](O)CC1=O)[C@H](C)C[C@@H]2OC (stereo partly drawn)
U251 CNS
  GI50: 14.2 µM
  TGI: 27.7 µM
SF-539 CNS
  GI50: 17.5 µM
  TGI: 34 µM
MCF7 breast
  GI50: 13.8 µM
  TGI: 29 µM
SNB-19 CNS
  GI50: 15.6 µM
  TGI: 30.4 µM
KM12 colon
  GI50: 14.9 µM
  TGI: 28.7 µM
MDA-MB-435
  GI50: 16.2 µM
  TGI: 37.7 µM
SN12C renal
  GI50: 16.3 µM
  TGI: 31.6 µM
A498 renal
  GI50: 9.95 µM
  TGI: 24.3 µM
OVCAR-3 ovarian
  GI50: 14.2 µM
  TGI: 27.2 µM

## NC1=CC(=O)c2nc3ccccc3c3ccnc1c23
U251 CNS
  GI50: 2.17 µM
  TGI: > 45.2 µM
SF-539 CNS
  GI50: 3.99 µM
  TGI: 57.1 µM
MCF7 breast
  GI50: 1.29 µM
  TGI: > 100 µM
SNB-19 CNS
  GI50: 3.06 µM
  TGI: > 93.2 µM
KM12 colon
  GI50: 3.05 µM
  TGI: > 65.9 µM
MDA-MB-435
  GI50: 1.22 µM
  TGI: 19 µM
SN12C renal
  GI50: 5.59 µM
  TGI: > 74.1 µM
A498 renal
  GI50: 6.19 µM
  TGI: 40.8 µM
OVCAR-3 ovarian
  GI50: 3.6 µM
  TGI: > 51.9 µM

## CCC[CH2][Sn]1([CH2]CCC)[O]CC(CN2CCOCC2)[O]1 (stereo not drawn)
U251 CNS
  GI50: 3.05 µM
  TGI: 11 µM
SF-539 CNS
  GI50: 2.96 µM
  TGI: 8.59 µM
SNB-19 CNS
  GI50: 7.65 µM
  TGI: 19.6 µM
KM12 colon
  GI50: 10.4 µM
  TGI: 22.5 µM
SN12C renal
  GI50: 5.02 µM
  TGI: 16.7 µM
A498 renal
  GI50: 5.5 µM
  TGI: 17.2 µM
HOP-92 NSCLC
  GI50: 3.7 µM
  TGI: 14 µM
OVCAR-3 ovarian
  GI50: 2.13 µM
  TGI: 8.23 µM

## COc1ccc(C(=O)C(C(=O)C(=O)NC2C3CC4CC(C3)CC2C4)c2ccc(OC)cc2)cc1 (stereo not drawn)
U251 CNS
  TGI: > 100 µM
SF-539 CNS
  TGI: > 100 µM
SNB-19 CNS
  TGI: > 100 µM
KM12 colon
  TGI: > 100 µM
SN12C renal
  TGI: > 100 µM
A498 renal
  TGI: > 100 µM
HOP-92 NSCLC
  TGI: > 100 µM
OVCAR-3 ovarian
  TGI: > 100 µM

## CC1=NC(C(C)C)C(=O)O1 (stereo not drawn)
U251 CNS
  TGI: > 100 µM
SF-539 CNS
  TGI: > 100 µM
SNB-19 CNS
  TGI: > 100 µM
KM12 colon
  TGI: > 100 µM
SN12C renal
  TGI: > 100 µM
A498 renal
  TGI: > 100 µM
HOP-92 NSCLC
  TGI: > 100 µM
OVCAR-3 ovarian
  TGI: > 100 µM
